# In US10772967B2, “Enhanced anticancer agent” (priority 2014, dated 2020):
# Like-named read-outs stand apart in the source and are kept apart here.
# Columns and labels:
# [1] = rat, in vivo, iv
# Description: (§1) The concentration of test compounds in plasma was determined using validated HPLC method and plotted as a function of time after dosing. Concentrations are expressed as means (±SEM).
# (§2) Jugular vein cannulated Sprague-Dawley male rats (200-220 g, 49-52 days old) were used for this study. An extension catheter was attached to the indwelling jugular vein cannula to facilitate remote sampling. The animals were randomly divided into two groups (N=3 or 4): control group and treatment group. […] Simultaneously, the control group was pretreated with vehicle (sterile water) followed by a single combined intravenous dose of molar equivalent of all test compounds as described above. Plasma was collected from each rat and precipitated using 2× solvent B (95:5, Methanol-Water, 0.1% TFA).
# [2] = Pharmacokinetic profile of Conj3 and Conj4 in rats; conditions: i.v.
# Description: as §1, §2
# [3] = Stability against proteolytic hydrolysis in human serum; conditions: human serum pre-incubated with AG10 (10 μM)
# Description: The amounts of compounds remaining in serum were quantitated at different time-points.
# [4] = tested on: T1, trypsin; experiment: Trypsin cleavage experiment in buffer, 7-AMC release; format: biochemical; conditions: hTTR present
# T1 construct: purchased Gibco TrypLE Express
# Description: We used trypsin to test the ability of hTTR to protect TLHE1-peptide conjugate (Conj1) from proteolysis in buffer. FIG. 14 illustrates the protection effect of binding to TTR on the stability of Conj1 in vitro. hTTR protects Conj1 against trypsin hydrolysis in buffer, according to some embodiments.
# AFU is arbitrary fluorescence units.
# The experiment was performed in quadruplicate.
# [5] = Dose escalation of AG10 in rats, plasma concentration; conditions: i.v., initial rapid decline of total plasma concentration
# Description: Adult male Wistar rats, body weight ranging 160-200 g, were used for the study. […] Blood samples were collected at 0.08, 2, 4, 8, and 24 hour time intervals. The plasma samples were prepared by centrifugation at 15,000 RPM for 5 min. The resultant plasma was precipitated using 2× solvent B (95:5, Methanol-Water, 0.1% TFA).
# [6] = Chemical stability in serum and simulated gastric acid; format: in vitro ADME; conditions: at least 48 h
# Excerpt: Therefore, TLHE1 is a very good candidate for conjugation to peptides.
# T1 sequence (P35049 25-248): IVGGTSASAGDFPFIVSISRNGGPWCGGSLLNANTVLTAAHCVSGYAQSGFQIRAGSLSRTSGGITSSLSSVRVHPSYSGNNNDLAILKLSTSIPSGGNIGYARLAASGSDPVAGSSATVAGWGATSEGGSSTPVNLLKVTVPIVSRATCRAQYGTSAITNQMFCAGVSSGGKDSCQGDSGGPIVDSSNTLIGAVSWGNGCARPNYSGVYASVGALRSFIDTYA
structure (smiles),measurement,setting,value
CC(C)C[C@H](NC(=O)[C@@H](CCCCNC(=O)CCOCCOCCOCCN=[N+]=[N-])NC(=O)[C@H](Cc1ccc(O)cc1)NC(=O)[C@H](CO)NC(=O)[C@H](Cc1c[nH]c2ccccc12)NC(=O)[C@H](Cc1c[nH]cn1)NC(=O)[C@@H]1CCC(=O)N1)C(=O)N[C@@H](CCCNC(=N)N)C(=O)N1CCC[C@H]1C(=O)NCC(N)=O [GnRH-A-Linker],plasma levels after 2 h of administration,[1],no detectable levels
"CC(C)C[C@H](NC(=O)[C@@H](CCCCN)NC(=O)[C@H](Cc1ccc(O)cc1)NC(=O)[C@H](CO)NC(=O)[C@H](Cc1c[nH]c2ccccc12)NC(=O)[C@H](Cc1cnc[nH]1)NC(=O)[C@@H]1CCC(=O)N1)C(=O)N[C@@H](CCCNC(=N)N)C(=O)N1CCC[C@H]1C(=O)NCC(N)=O [GnRH-A, reference compound]",plasma levels after 2 h of administration,[2],no detectable levels
Cc1n[nH]c(C)c1CCCOc1cc(OCCCc2cn(CCOCCOCCOCCC(=O)NC(CCC(=O)O)C(=O)NC(Cc3c[nH]cn3)C(=O)NC(Cc3c[nH]c4ccccc34)C(=O)NC(CO)C(=O)NC(Cc3ccc(O)cc3)C(=O)NCC(=O)NC(CC(C)C)C(=O)NC(CCCNC(=N)N)C(=O)N3CCCC3C(=O)NCC(N)=O)nn2)cc(C(=O)O)c1 (centres unmarked) [Conj3],amount remaining after 48 h in serum pre-incubated with AG10,[3]; 48 h,no detectable amount
Cc1cc(=O)oc2cc(NC(=O)C(CCCCN)NC(=O)CNC(=O)C(CCCNC(=N)N)NC(=O)CCOCCOCCOCCN=[N+]=[N-])ccc12 (stereo not drawn) [Arg-Gly-Lys-MCA],protection against proteolysis in the presence of hTTR (in words),[4],no protection against proteolysis
Cc1n[nH]c(C)c1CCCOc1cc(C(=O)O)ccc1F [AG10],initial half-life,[5],5 to 20 min
CC[C@H](C)[C@H](NC(=O)[C@H](Cc1ccc(O)cc1)NC(=O)[C@@H]1CCCN1C(=O)[C@H](CCCNC(=N)N)NC(=O)[C@H](CCCNC(=N)N)NC(=O)[C@@H]1CCCN1C(=O)[C@H](CCCCN)NC(=O)[C@H](CC(N)=O)NC(=O)[C@H](CCC(=O)O)NC(=O)[C@H](Cc1ccc(O)cc1)NC(=O)[C@H](CC(C)C)NC(=O)[C@H](CCC(=O)O)NC(=O)CCOCCOCCOCCn1cc(CCCOc2cc(OCCCc3c(C)n[nH]c3C)cc(C(=O)O)c2)nn1)C(=O)N[C@@H](CC(C)C)C(=O)O [Conj2],amount remaining after 24 h in serum pre-incubated with AG10,[3]; 24 h,no detectable amount
"C#CCCCOc1cc(OCCCc2c(C)n[nH]c2C)cc(C(=O)O)c1 [TLHE1, 3-(3-(3,5-dimethyl-1H-pyrazol-4-yl)propoxy)-5-(pent-4-yn-1-yloxy)benzoic Acid]",degradation,[6],< 3%
Cc1n[nH]c(C)c1CCCOc1cc(OCCCc2cn(CCOCCOCCOCCC(=O)NCCCCC(NC(=O)C(Cc3ccc(O)cc3)NC(=O)C(CO)NC(=O)C(Cc3c[nH]c4ccccc34)NC(=O)C(Cc3c[nH]cn3)NC(=O)C3CCC(=O)N3)C(=O)NC(CC(C)C)C(=O)NC(CCCNC(=N)N)C(=O)N3CCCC3C(=O)NCC(N)=O)nn2)cc(C(=O)O)c1 (centres unmarked) [Conj4],time present in circulation,[2],at least 12 h
